According to patent US7807702B2 (Eli Lilly and Company, priority 2005, dated 2010):

Molecular target: T1, cloned human glucagon receptor (Homo sapiens, UniProt P47871)
T1 construct: The hGlucR cDNA is subcloned into the expression plasmid phD; expressed in transfected cells; host or cells: 293 HEK cells, hygromycin-selected; crude plasma membranes
Experiment: Glucagon Receptor (hGlucR) Binding Assay
Procedure: Crude plasma membranes are prepared using cells from suspension culture. […] The second supernate is combined with the first supernate.
The specific activity is 2200 Ci/mmol.

T1 sequence (P47871 26-477): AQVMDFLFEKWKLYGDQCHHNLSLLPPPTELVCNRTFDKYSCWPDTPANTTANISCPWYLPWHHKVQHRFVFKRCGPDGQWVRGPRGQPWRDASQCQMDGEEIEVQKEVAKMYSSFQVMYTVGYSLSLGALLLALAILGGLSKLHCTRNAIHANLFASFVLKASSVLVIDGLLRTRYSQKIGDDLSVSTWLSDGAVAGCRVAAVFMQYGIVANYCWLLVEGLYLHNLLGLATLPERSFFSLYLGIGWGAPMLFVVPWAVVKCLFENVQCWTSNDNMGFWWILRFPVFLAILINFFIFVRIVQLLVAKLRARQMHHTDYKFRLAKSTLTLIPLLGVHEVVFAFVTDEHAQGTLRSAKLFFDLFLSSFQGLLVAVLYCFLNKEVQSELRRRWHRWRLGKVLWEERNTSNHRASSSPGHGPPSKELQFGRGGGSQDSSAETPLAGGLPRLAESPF

CCCC(Sc1cc(C)c(-c2ccc(C(F)(F)F)cc2)c(C)c1)c1ccc(C(=O)NCc2nnn[nH]2)s1 (stereo not shown)
Ki: 36 nM
